Measured values reported in patent US20230346831A1, “METHODS FOR TREATING […] USING LOW DOSE CARBON MONOXIDE” (priority 2020, published 2023).

System: HiF1α
Experiment: Western blot analysis
Type: cell-based, human
Conditions: MCF7/TGL and MDA-MB-231/TGL cells; 250 ppm CO for 16 hours vs standard incubator
Procedure: 1.5 × 10^6 cells were seeded in 6-cm cell culture plates with DMEM containing 10% FBS, 0.2 mM L-glutamine and 1% penicillin/streptomycin. Additionally, MCF7/TGL/pQ was cultured in media containing 0.5 µgml^-1 puromycin and 25 mM HEPES. After 16 hours of incubation, cells were lysed with RIPA buffer (0.1% SDS, 1% TritonX-100, 0.5% sodium deoxycholate, 25 mM Tris pH 8.0, 150 mM NaCl, and 1 mM EDTA) supplemented with a protease inhibitor mixture and PhosSTOP (Roche, Basel, Switzerland). Proteins were quantified with Bradford assay (Bio-Rad, Hercules CA). Equal amounts of proteins were separated with SDS-PAGE and transferred to nitrocellulose membranes. […] Protein bands were visualized by enhanced chemical luminescence (Pierce, Dallas, TX).
To investigate whether 250 ppm CO induces hypoxia, HiF1α protein levels in low-dose CO-treated MCF7/TGL and MDA-MB-231/TGL cells were examined. […] To assess the intracellular heme levels affected by low-dose CO treatment, oxidized heme levels in the form of hemin (Fe^3+ state) were measured because free heme (Fe^2+ state) is readily oxidized and cannot be measured. […]

[C-]#[O+] [CO, Carbon monoxide]
HiF1α protein levels: not changed
